From patent publication US7034050B2, “Pseudopeptides growth hormone secretagogues” (priority 2004, dated 2006) come the findings set out here.

The subject of assay [1] is rat epididynial adipocytes. Nature of the assay: binding affinity to rat epididynial adipocytes. As to conditions: compared with rat ghrelin, MK 0677 and hexarelin.
The target in assay [2] is T1, human pituitary gland tissues (Homo sapiens, UniProt Q92847).
T1 construct: from tissue; host or cells: human pituitary gland tissue
Put plainly: binding affinity to human pituitary gland tissues. As to conditions: compared with ghrelin, hexarelin, MK 0677 and JMV 1843.

For assay [3], the system named is GH release. Put plainly: stimulation of GH release in vitro. The class given is cell-based.
The subject of assay [4] is GH release. Nature of the assay: GH release in vivo (neonatal rats injected subcutaneously). Also noted: species or system rat.

T1 sequence (Q92847 whole entry): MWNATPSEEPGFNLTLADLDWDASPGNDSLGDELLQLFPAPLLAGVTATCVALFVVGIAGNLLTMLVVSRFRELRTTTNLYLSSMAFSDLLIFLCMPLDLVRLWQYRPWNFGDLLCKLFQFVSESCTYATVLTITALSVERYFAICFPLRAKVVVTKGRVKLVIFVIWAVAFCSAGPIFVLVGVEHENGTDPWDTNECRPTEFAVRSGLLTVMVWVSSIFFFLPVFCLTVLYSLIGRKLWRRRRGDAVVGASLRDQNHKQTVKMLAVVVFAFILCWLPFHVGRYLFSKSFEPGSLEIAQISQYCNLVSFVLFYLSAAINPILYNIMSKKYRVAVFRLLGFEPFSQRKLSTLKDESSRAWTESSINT

For the substance Aib-D-Trp-D-Trpψ[CH2—NH—O]Gly-NH2 [IIa], the “binding affinity to rat epididynial adipocytes” value in assay [1] is “comparable to that of rat ghrelin and superior to that of MK 0677 and hexarelin”. In addition, in assay [2], the “binding affinity to human pituitary gland tissues” value was “comparable to that of the natural ligand ghrelin and superior to the binding affinity of the synthetic GH secretagogues”. The “potency in stimulating the GH release in vitro” value in the assay on GH release [3] is given as “remarkably potent”. The “potency in stimulating the GH release in vivo” value in the assay on GH release [4] is “remarkably potent”. Further, the “amount of growth hormone released” value with GH release [4] (neonatal rats, subcutaneous injection, compared with MK 0677 and hexarelin) is “exceeded the amount released when the standard GH secretagogues MK 0677 and hexarelin were administered”.

Take Aib-D-Trp-D-Trpψ[CH═N˜O]Gly-NH2 [Ia]: the “binding affinity to rat epididynial adipocytes” value in assay [1] was “comparable to that of rat ghrelin and superior to that of MK 0677 and hexarelin”. For the same substance, the “binding affinity to human pituitary gland tissues” value in assay [2] is “comparable to that of the natural ligand ghrelin and superior to the binding affinity of the synthetic GH secretagogues”. Further, the “potency in stimulating the GH release in vitro” value in the assay on GH release [3] is “remarkably potent”. Also, the “potency in stimulating the GH release in vivo” value in the assay with GH release [4] is reported as “remarkably potent”.
